# ChEMBL document CHEMBL1150408, “Synthesis, induced-fit docking investigations, and in vitro aldose reductase inhibitory activity of non-carboxylic acid containing 2,4-thiazolidinedione derivatives” (Bioorg Med Chem, 2008)
# Test system: not listed separately
# Assay: Dissociation constant, pKa of the compound
# Format: physicochemical
# Conditions: not given
row,pKa,Compound
1,8,O=C1NC(=O)[C@@]2(CCOc3ccc(F)cc32)N1 [SORBINIL]

# Biological target: Aldo-keto reductase family 1 member B1 (Bos taurus) (UniProt P16116)
# Assay: Inhibition of bovine lens ALR2 at 12.5 uM assessed as reduction of D,L-glyceraldehyde by spectrophotometry
# Format: tissue-based
# Conditions: Lens of camera-type eye
row,inhibition [%],Compound
1,32,NC(=O)CN1C(=O)S/C(=C\c2cccc3ccccc23)C1=O
2,8,NC(=O)CN1C(=O)S/C(=C\c2cccc(Oc3ccccc3)c2)C1=O
3,10,COc1cccc(/C=C2\SC(=O)N(CC(N)=O)C2=O)c1
4,3,NC(=O)CN1C(=O)S/C(=C\c2ccc3ccccc3c2)C1=O
5,0,COc1ccc(/C=C2\SC(=O)N(CC(N)=O)C2=O)cc1
6,18,NC(=O)CN1C(=O)S/C(=C\c2ccc(-c3ccccc3)cc2)C1=O
7,0,NC(=O)CN1C(=O)S/C(=C\c2ccc(Oc3ccccc3)cc2)C1=O
8,16,NC(=O)CN1C(=O)S/C(=C\c2cccc(O)c2)C1=O
9,31,COc1cc(/C=C2\SC(=O)N(CC(N)=O)C2=O)ccc1O
10,0,COc1ccc(/C=C2\SC(=O)N(CC(N)=O)C2=O)cc1O

# Biological target: Aldose reductase (Bos taurus)
# Assay: Inhibition of ALR2
# Conditions: not given
row,IC50 [µM],Compound
1,0.15,O=C(O)CN1C(=O)S/C(=C\c2ccc(O)cc2)C1=O

# Biological target: Aldo-keto reductase family 1 member B1 (Bos taurus, UniProt P16116)
# Assay: Inhibition of bovine lens ALR2 assessed as reduction of D,L-glyceraldehyde by spectrophotometry
# Parameters: species or system Lens of camera-type eye
# Conditions: not given
row,IC50 [µM],Compound
1,12.7,O=C(CN1C(=O)S/C(=C\c2cccc(Oc3ccccc3)c2)C1=O)NO
2,3.67,O=C(CN1C(=O)S/C(=C\c2ccc(Oc3ccccc3)cc2)C1=O)NO
3,4.2,O=C(CN1C(=O)S/C(=C\c2cccc3ccccc23)C1=O)NO
4,6.52,NC(=O)CN1C(=O)S/C(=C\c2ccc(O)cc2)C1=O
5,20.3,O=C(CN1C(=O)S/C(=C\c2ccc(-c3ccccc3)cc2)C1=O)NO
6,1.79,O=C(CN1C(=O)S/C(=C\c2ccc(O)cc2)C1=O)NO
7,7.34,O=C(CN1C(=O)S/C(=C\c2ccc(OCc3ccccc3)cc2)C1=O)NO

# Biological target: Aldo-keto reductase family 1 member B1 (Bos taurus) (UniProt P16116)
# Assay: Inhibition of bovine lens ALR2 at 25 uM assessed as reduction of D,L-glyceraldehyde by spectrophotometry
# Conditions: Lens of camera-type eye
row,inhibition [%],Compound
1,39,O=C(CN1C(=O)S/C(=C\c2ccc3ccccc3c2)C1=O)NO
